{"source": "paper PMC9867029", "about": "“Effect of Salts on the Conformational Dynamics of the Cytochrome P450 OleP” (Molecules, 2023)", "target": "T1, OleP (CYP107D1) (Streptomyces antibioticus, UniProt Q59819)", "T1 sequence (Q59819 1-407)": "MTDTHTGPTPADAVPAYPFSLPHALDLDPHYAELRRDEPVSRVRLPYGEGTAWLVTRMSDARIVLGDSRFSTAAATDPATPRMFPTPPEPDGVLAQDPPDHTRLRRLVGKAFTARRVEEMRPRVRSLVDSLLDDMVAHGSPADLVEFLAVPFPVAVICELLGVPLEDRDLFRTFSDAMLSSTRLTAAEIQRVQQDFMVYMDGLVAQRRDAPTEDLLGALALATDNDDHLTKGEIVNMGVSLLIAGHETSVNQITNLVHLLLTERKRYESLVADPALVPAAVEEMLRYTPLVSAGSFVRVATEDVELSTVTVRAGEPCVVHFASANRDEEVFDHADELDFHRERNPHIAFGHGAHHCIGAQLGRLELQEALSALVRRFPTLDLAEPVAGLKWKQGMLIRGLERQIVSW", "experiment": "UV-visible Soret spectral titration (type I shift), global hyperbolic fit", "format": "binding", "text": "UV-visible Soret spectral titration (type I shift), global hyperbolic fit on OleP (CYP107D1)"}
{"compound": "CC[C@H]1OC(=O)[C@H](C)[C@@H](O)[C@H](C)[C@@H](O)[C@@H](C)C[C@@H](C)C(=O)[C@H](C)[C@@H](O)[C@H]1C", "note": "[6DEB]", "values": [{"measurement": "Kd", "value": "3.83 ± 0.06", "unit": "µM"}]}
